Experimental data published in patent publication US5219884A, “Immunosuppressant” (Taito Co., Ltd., priority 1990, dated 1993).
≈ marks a conversion by molar mass, not a printed value. Like-named read-outs stand apart in the source and are kept apart here.

Experiments:
[1] = tested on: mouse allogenic mixed lymphocyte reaction (BALB/c responder, C57BL/6 stimulator spleen cells); assay: mouse allogenic mixed lymphocyte reaction (MLR), blastogenesis by 3H-thymidine uptake; assay type: cell-based
Description: The immunosuppressive activity of the compounds (I) and their lactones was assayed by using mouse allogenic mixed lymphocyte reaction (hereinafter sometimes abbreviated as MLR). Mouse allogenic MLR was carried out by mixed culture of the BALB/c mouse (H-2^d) spleen cells as the responder cells and the mitomycin C-treated C57BL/6 (H-2^b) spleen cells as the stimulator cells in equal amounts.
The responder cells were prepared as follows: The spleen was resected from 5- to 6-week-old male BALB/c mice, and single cell suspension of spleen cells was prepared by using the RPMI1640 culture medium (containing 60 μg/ml of kanamycin sulfate, 2 mM of L-glutamine, 10 mM of N-2-hydroxyethylpiperazine-N'-2-ethanesulfonate (HEPES) and 0.1% sodium hydrogencarbonate) to which heat-inactivated fetal calf serum (hereinaftersometimes abbreviated as FCS) had been added to 5%. After hemolytic treatment, the cell suspension was adjusted to a concentration of 10^7 cells/ml by using the RPMI1640 culture medium supplemented with 10^-4 M 2-mercaptoethanol and 20% FCS, and was used as the responder cell suspension.
The stimulator cells were prepared as follows:
The spleen was resected from 5- to 6-week-old male C57BL/6 mice, and single cell suspension of spleen cells was prepared by using the RPMI1640 culture medium. After hemolytic treatment, the cells were treated with 40 μg/ml of mitomycin C at 37° C. for 60 minutes. After washing three times, the concentration of the cell suspension was adjusted to 10^7 cells/ ml by using the RPMI1640 culture medium supplemented with 10^-4 M 2-mercaptoethanol and 20% FCS, and was used as the stimulator cell suspension.
Fifty μl of the responder cell suspension, 50μl of the stimulator cell suspension prepared by the above method, and 100 μl of the test substance were placed in 96-well microculture plates, and were cultured at 37° C. in an atmosphere of 5% carbon dioxide for 4 days.
The blastogenesis of lymphocytes was assayed by a method of ^3 H-thymidine uptake as an index. That is, after termination of the culture, 0.5 μCi/well of ^3 H-thymidine was added and cultured for 4 hours. Cells were harvested by a cell-harvester, and the radioactivity incorporated into the cells was determined by a liquid scintillation counter to obtain the index of blastogenesis of lymphocytes in the mouse allogenic MLR. The suppression of the mouse allogenic MLR was evaluated by calculating the percent suppression by the following formula. [formula]
The test substance was dissolved in methanol or suspended in a mixture of methanol and acetic acid, and then diluted with the RPMI1640 culture medium.

mouse L929 cells = assay: cytotoxicity to mouse L929 cells; assay type: cell-based; details: 550 nm
Description: Cytotoxicity to mouse L929 cells was assayed as follows:
L929 cells were suspended to the concentration of 1.5×10^5 cells/ml in the F12 culture medium supplemented with 10% FCS. One hundred μl of the suspension was added to each well of 96-well microculture plates, and cultured at 37° C. in an atmosphere of 5% carbon dioxide for 24 hours, to which 100 μl of the test solution was added and cultured for further 48 hours. After the culture, 100 μl of the supernatant was removed and the absorbancy at 550 nm was measured in the same way as the colormetry using MTT in Experimental Example 1. The percent suppression was calculated by the following formula used as the index of cytotoxicity. [formula]

in vitro = assay type: cell-based, human; details: human, read-out: Suppression
Description: (§1) Cytotoxicity to human tumor cell lines was examined as follows:
(§2) Cells of human cell lines, K562, MOLT4, U937, HL60, KATOIII, KB, PC-6, PC-14 and CCRF-CEM were separately suspended to the concentration of 2×10^5 cells/ml in the RPMI1640 culture medium supplemented with 20% FCS. Fifty μl of this suspension was added to each well of 96-well microculture plates to which 50 μl of the test solution had been added. After culturing at 37° C. in an atmosphere of 5% carbon dioxide for 72 hours, the absorbancy at 550 nm was measured in the same way as the colorimetry using MTT in Experimental Example 1, and the percent suppression was calculated in the same manner as in Experimental Example 14, which was used as the index of cytotoxicity.

CCRF-CEM = assay: in vitro; assay type: cell-based, human
Description: as §1, §2

HL60 = assay: in vitro; assay type: cell-based, human
Description: as §1, §2

K562 = assay: in vitro; assay type: cell-based, human
Description: as §1, §2

KB = assay: in vitro; assay type: cell-based, human
Description: as §1, §2

PC-14 = assay: in vitro; assay type: cell-based, human
Description: as §1, §2

U937 = assay: in vitro; assay type: cell-based, human
Description: as §1, §2

[2] = cytotoxicity to tumor cell line MOLT4; assay type: cell-based, human; details: human, molt4 cells, read-out: Suppression
Description: as §1, §2

MOLT4 = assay: cytotoxicity to tumor cell line MOLT4; assay type: cell-based, human
Description: as §1, §2

[3] = Mus musculus, Lymphocyte, read-out: Suppression

CCCCCCC(=O)CCCCCC/C=C/CC(O)C(O)C(N)(CO)C(=O)O (stereo not shown) [Example 1]
3H-thymidine uptake ([1]; 0.001 μg/ml): 14760 cpm | 3H-thymidine uptake ([1]; 0.01 μg/ml): 6436 cpm | 3H-thymidine uptake ([1]; 0.1 μg/ml): 686 cpm | 3H-thymidine uptake ([1]; 1 μg/ml): 698 cpm | IC50 ([1]; Mus musculus, Lymphocyte, read-out: 50%-inhibition concentration (IC50)): 7.1 ng/mL (≈ 0.0177 µM) | inhibition at 0.001 µg/mL [1, 3]: 0% | inhibition at 0.01 µg/mL [1, 3]: 59.2% | inhibition at 0.1 µg/mL [1, 3]: 100% | inhibition at 1 µg/mL [1, 3]: 100% | Absorbancy (mouse L929 cells; 1 μg/ml): 0.699 | Absorbancy (mouse L929 cells; 10 μg/ml): 0.693 | Absorbancy (mouse L929 cells; 100 μg/ml): 0.321 | cytotoxicity at 72 h (in vitro; hl60 cells, 1.0 μg/ml): 38.2% | cytotoxicity at 72 h (in vitro; pc-14 cells, 1.0 μg/ml): 7% | Absorbancy (CCRF-CEM; 0.01 μg/ml): 0.678 | Absorbancy (CCRF-CEM; 0.1 μg/ml): 0.709 | Absorbancy (CCRF-CEM; 1.0 μg/ml): 0.660 | Absorbancy (CCRF-CEM; 10.0 μg/ml): 0.637 | Absorbancy (CCRF-CEM; 100.0 μg/ml): 0.013 | Absorbancy (HL60; 0.1 μg/ml): 0.402 | Absorbancy (HL60; 1.0 μg/ml): 0.390 | Absorbancy (HL60; 10.0 μg/ml): 0.377 | Absorbancy (HL60; 100.0 μg/ml): 0.101 | Absorbancy (K562; 0.1 μg/ml): 0.886 | Absorbancy (K562; 1.0 μg/ml): 0.905 | Absorbancy (K562; 10.0 μg/ml): 0.929 | Absorbancy (K562; 100.0 μg/ml): 0.583 | Absorbancy (KB; 0.01 μg/ml): 0.898 | Absorbancy (KB; 0.1 μg/ml): 0.865 | Absorbancy (KB; 1.0 μg/ml): 0.879 | Absorbancy (KB; 10.0 μg/ml): 0.886 | Absorbancy (KB; 100.0 μg/ml): 0.025 | Absorbancy (PC-14; 0.01 μg/ml): 0.801 | Absorbancy (PC-14; 0.1 μg/ml): 0.770 | Absorbancy (PC-14; 1.0 μg/ml): 0.732 | Absorbancy (PC-14; 10.0 μg/ml): 0.751 | Absorbancy (PC-14; 100.0 μg/ml): 0.074 | Absorbancy (U937; 0.1 μg/ml): 0.619 | Absorbancy (U937; 1.0 μg/ml): 0.567 | Absorbancy (U937; 10.0 μg/ml): 0.497 | Absorbancy (U937; 100.0 μg/ml): 0.156 | cytotoxicity at 72 h ([2]; 0.1 μg/ml): 9.4% | Absorbancy (MOLT4; 0.1 μg/ml): 0.560 | Absorbancy (MOLT4; 1.0 μg/ml): 0.559 | Absorbancy (MOLT4; 10.0 μg/ml): 0.499 | Absorbancy (MOLT4; 100.0 μg/ml): 0.074

CCCCCCC(=O)CCCCCC/C=C/CC1OC(=O)C(N)(CO)C1O (stereo not shown) [Example 4]
3H-thymidine uptake ([1]; 0.001 μg/ml): 29598 cpm | 3H-thymidine uptake ([1]; 0.01 μg/ml): 10394 cpm | 3H-thymidine uptake ([1]; 0.1 μg/ml): 1414 cpm | inhibition at 0.001 µg/mL ([1]; Mus musculus, Lymphocyte, 0.001 μg/ml, read-out: Suppression): 0.4% | inhibition at 0.01 µg/mL ([1]; Mus musculus, Lymphocyte, 0.01 μg/ml, read-out: Suppression): 70% | inhibition at 0.1 µg/mL ([1]; Mus musculus, Lymphocyte, 0.1 μg/ml, read-out: Suppression): 100% | cytotoxicity at 72 h (in vitro; ccrf-cem cells, 0.1 μg/ml): 11.3% | cytotoxicity at 72 h (in vitro; ccrf-cem cells, 1.0 μg/ml): 12.6% | cytotoxicity at 72 h (in vitro; ccrf-cem cells, 10.0 μg/ml): 37.4% | cytotoxicity at 72 h (in vitro; ccrf-cem cells, 100.0 μg/ml): 99.4% | cytotoxicity at 72 h (in vitro; hl60 cells, 0.1 μg/ml): 23.4% | cytotoxicity at 72 h (in vitro; hl60 cells, 1.0 μg/ml): 13.3% | cytotoxicity at 72 h (in vitro; hl60 cells, 10.0 μg/ml): 21.1% | cytotoxicity at 72 h (in vitro; hl60 cells, 100.0 μg/ml): 97.7% | cytotoxicity at 72 h (in vitro; k562 cells, 0.1 μg/ml): 14.7% | cytotoxicity at 72 h (in vitro; k562 cells, 1.0 μg/ml): 8.3% | cytotoxicity at 72 h (in vitro; k562 cells, 10.0 μg/ml): 14.5% | cytotoxicity at 72 h (in vitro; k562 cells, 100.0 μg/ml): 98.9% | cytotoxicity at 72 h (in vitro; katoiii cells, 0.1 μg/ml): 5.3% | cytotoxicity at 72 h (in vitro; katoiii cells, 1.0 μg/ml): 6.7% | cytotoxicity at 72 h (in vitro; katoiii cells, 10.0 μg/ml): 25.8% | cytotoxicity at 72 h (in vitro; katoiii cells, 100.0 μg/ml): 97.9% | cytotoxicity at 72 h (in vitro; kb cells, 0.1 μg/ml): 19% | cytotoxicity at 72 h (in vitro; kb cells, 1.0 μg/ml): 2.5% | cytotoxicity at 72 h (in vitro; kb cells, 10.0 μg/ml): 33.5% | cytotoxicity at 72 h (in vitro; kb cells, 100.0 μg/ml): 99% | cytotoxicity at 72 h (in vitro; pc-14 cells, 0.1 μg/ml): 0% | cytotoxicity at 72 h (in vitro; pc-14 cells, 1.0 μg/ml): 0% | cytotoxicity at 72 h (in vitro; pc-14 cells, 10.0 μg/ml): 0% | cytotoxicity at 72 h (in vitro; pc-14 cells, 100.0 μg/ml): 95.3% | cytotoxicity at 72 h (in vitro; u937 cells, 0.1 μg/ml): 16.1% | cytotoxicity at 72 h (in vitro; u937 cells, 1.0 μg/ml): 0% | cytotoxicity at 72 h (in vitro; u937 cells, 10.0 μg/ml): 2.9% | cytotoxicity at 72 h (in vitro; u937 cells, 100.0 μg/ml): 99% | Absorbancy (CCRF-CEM; 0.1 μg/ml): 0.564 | Absorbancy (CCRF-CEM; 1.0 μg/ml): 0.556 | Absorbancy (CCRF-CEM; 10.0 μg/ml): 0.389 | Absorbancy (CCRF-CEM; 100.0 μg/ml): 0.004 | Absorbancy (HL60; 0.1 μg/ml): 0.265 | Absorbancy (HL60; 1.0 μg/ml): 0.300 | Absorbancy (HL60; 10.0 μg/ml): 0.273 | Absorbancy (HL60; 100.0 μg/ml): 0.008 | Absorbancy (K562; 0.1 μg/ml): 0.524 | Absorbancy (K562; 1.0 μg/ml): 0.563 | Absorbancy (K562; 10.0 μg/ml): 0.525 | Absorbancy (K562; 100.0 μg/ml): 0.007 | Absorbancy (KB; 0.1 μg/ml): 0.884 | Absorbancy (KB; 1.0 μg/ml): 1.065 | Absorbancy (KB; 10.0 μg/ml): 0.726 | Absorbancy (KB; 100.0 μg/ml): 0.012 | Absorbancy (PC-14; 0.1 μg/ml): 0.656 | Absorbancy (PC-14; 1.0 μg/ml): 0.679 | Absorbancy (PC-14; 10.0 μg/ml): 0.657 | Absorbancy (PC-14; 100.0 μg/ml): 0.030 | Absorbancy (U937; 0.1 μg/ml): 0.313 | Absorbancy (U937; 1.0 μg/ml): 0.384 | Absorbancy (U937; 10.0 μg/ml): 0.362 | Absorbancy (U937; 100.0 μg/ml): 0.004 | cytotoxicity at 72 h ([2]; 0.1 μg/ml): 14% | cytotoxicity at 72 h ([2]; 1.0 μg/ml): 14.2% | cytotoxicity at 72 h ([2]; 10.0 μg/ml): 22.8% | cytotoxicity at 72 h ([2]; 100.0 μg/ml): 97.1% | Absorbancy (MOLT4; 0.1 μg/ml): 0.351 | Absorbancy (MOLT4; 1.0 μg/ml): 0.350 | Absorbancy (MOLT4; 10.0 μg/ml): 0.315 | Absorbancy (MOLT4; 100.0 μg/ml): 0.012
